The results in this text go back to US20200237766A1, “PKM2 ACTIVATORS IN COMBINATION WITH REACTIVE OXYGEN SPECIES FOR TREATMENT OF CANCER” (TOLERO PHARMACEUTICALS, INC., priority 2017, published 2020).

One may read the AC50 as the concentration at which the activity in the assay is half-maximal.

The structures appear in SMILES notation. Like-named read-outs stand apart in the source and are kept apart here.

The target in this assay is PKM2 (Homo sapiens, UniProt P14618). The assay can be described thus: PKM2 activation biochemical assay (AC50 / max. response vs fructose 1,6-bisphosphate). The following applies: for Max. Resp. (%): % maximum response in a biochemical assay as compared with Fructose 1,6-bisphosphate.
[1] abbreviates: biochemical assay, read-out: PKM2 AC50.

Sequence of PKM2 (P14618 whole entry): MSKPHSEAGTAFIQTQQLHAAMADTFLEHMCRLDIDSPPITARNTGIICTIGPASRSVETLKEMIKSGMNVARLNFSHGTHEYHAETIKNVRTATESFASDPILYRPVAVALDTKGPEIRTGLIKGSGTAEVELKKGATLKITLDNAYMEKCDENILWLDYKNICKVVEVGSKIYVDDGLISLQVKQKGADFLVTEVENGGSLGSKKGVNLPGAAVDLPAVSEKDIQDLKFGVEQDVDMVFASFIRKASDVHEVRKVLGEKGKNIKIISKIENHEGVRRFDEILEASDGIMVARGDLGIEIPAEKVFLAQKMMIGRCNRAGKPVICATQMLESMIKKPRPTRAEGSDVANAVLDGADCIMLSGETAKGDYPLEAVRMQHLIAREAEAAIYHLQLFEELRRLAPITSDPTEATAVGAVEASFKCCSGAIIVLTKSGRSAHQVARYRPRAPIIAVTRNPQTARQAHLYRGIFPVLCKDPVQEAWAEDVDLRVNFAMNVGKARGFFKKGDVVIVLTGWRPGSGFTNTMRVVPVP

Consider `Nc1cccc(Cl)c1CN(CCN1CCC(O)C1)C(=O)c1cc(C(F)(F)F)n[nH]1` (stereo not drawn) [Compound 234], for which the “Max. Resp. (%)” value is 100%. The concentration at half-maximal activity (AC50) under setting [1] turned out to be 111 nM.
In the case of `O=C(c1cc(C(F)(F)F)n[nH]1)N(Cc1cccc2[nH]ccc12)NC1CCC1` [Compound 135], the “Max. Resp. (%)” value amounted to 100%. Moreover, the AC50 under setting [1] was 68 nM.
For `COC1CCN(CCN(Cc2c(N)cccc2Cl)C(=O)c2cc(C(F)(F)F)n[nH]2)C1` (stereo not drawn) [Compound 235] the same measures were 100% and 133 nM.
In the case of `NCCN(Cc1ccc(O)cc1F)C(=O)c1cc(C(F)(F)F)n[nH]1` [Compound 133], the “Max. Resp. (%)” value was found to be 100%. Also, the half-maximal activity concentration (AC50) under setting [1] stood at 1270 nM.
Taken in the same sequence, the figures for `O=C(CCSC(=S)NCc1cccnc1)c1cccnc1` [PMA29] were 106% and 3700 nM.
With `O=C(c1cc(C(F)(F)F)n[nH]1)N(Cc1ccc(O)cc1F)C1CCOCC1` [Compound 21], the AC50 under setting [1] is greater than 10000 nM.
`O=C(c1cc(Br)n[nH]1)N(Cc1cccc2[nH]c(=O)sc12)CC1CCC1` [Compound 10]: the “Max. Resp. (%)” value is reported as 127%. Under setting [1], the AC50 worked out at 2740 nM.
On to `O=c1cc(Cn2cnc3ccccc32)nc2ccc(Cl)cn12` [PP10], for which the AC50 under setting [1] was found to be 219 nM.
For the molecule `O=C(c1cc(C(F)(F)F)n[nH]1)N(CCC1CCS(=O)(=O)C1)Cc1cccc(F)c1F` (stereo not drawn) [Compound 68], the “Max. Resp. (%)” value was 103%. The AC50 under setting [1] is 766 nM.
For the molecule `CCCC(C)N(Cc1ccccc1)C(=O)c1cc(C(F)(F)F)n[nH]1` (stereo not drawn) [Compound 16], the “Max. Resp. (%)” value was 22%. Also, the concentration at half-maximal activity (AC50) under setting [1] is 74800 nM.
For `O=C(c1cc(C(F)(F)F)n[nH]1)N(CCN1CCCC1)Cc1cccc2nc[nH]c12` [Compound 163], the “Max. Resp. (%)” value was found to be 100%. Besides, the half-maximal activity concentration (AC50) under setting [1] amounted to 1080 nM.
For `Nc1cccc(Cl)c1CN(CCN1CCCC(O)C1)C(=O)c1cc(C(F)(F)F)n[nH]1` (stereo not drawn) [Compound 225], the “Max. Resp. (%)” value was determined as 100%. The AC50 under setting [1] came out at 102 nM.
For `CC1CCCCN1CCN(Cc1ccccc1F)C(=O)c1cc(C(F)(F)F)n[nH]1` (stereo not drawn) [Compound 203] the same measures were 100% and 550 nM.
For the molecule `O=C(c1cc(C(F)(F)F)n[nH]1)N(Cc1ccccc1Cl)C1CCOCC1` [Compound 35], the activity was half-maximal at 5080 nM (AC50) and the “Max. Resp. (%)” value is recorded as 59%.
Consider `COc1ccc(C(=O)CCSC(=S)NCc2cccnc2)cc1` [PMA16], for which the “Max. Resp. (%)” value was 63%. In addition, under setting [1], the AC50 came to 11200 nM.
`O=C(c1cc(C(F)(F)F)n[nH]1)N(Cc1cn[nH]c1)Cc1cccc2[nH]cnc12` [Compound 144]: the AC50 under setting [1] is 25000 nM.
On to `O=C(c1cc(C(F)(F)F)n[nH]1)N(CCN1CCCC1)Cc1c(Cl)cccc1Cl` [Compound 178], for which the “Max. Resp. (%)” value was found to be 100%. Under setting [1], the AC50 was found to be 126 nM.
On to `O=C(c1cc(C(F)(F)F)n[nH]1)N(CCC1CCCOC1)Cc1ccccc1Cl` (stereo not drawn) [Compound 36], for which the “Max. Resp. (%)” value is 88%. The AC50 under setting [1] came out at 1220 nM.
Regarding `CCN(CC)CCN(Cc1ccccc1Cl)C(=O)c1cc(Br)n[nH]1` [Compound 175], the AC50 amounted to 305 nM and the “Max. Resp. (%)” value came to 100%.
With `O=C(CCSC(=S)NCc1cccnc1)c1ccc(OCc2ccccc2)cc1` [PMA15], under setting [1], the AC50 was greater than 20000 nM.
In the case of `O=C(CCSC(=S)NCc1cccnc1)c1nccs1` [PMA28], the “Max. Resp. (%)” value is on record as 72%. Besides, the AC50 under setting [1] was determined as 3560 nM.
As to `O=C(c1cc(C(F)(F)F)n[nH]1)N(Cc1ccccc1F)CC1COC1` [Compound 20], the “Max. Resp. (%)” value is 70%. For the same molecule, the AC50 under setting [1] stood at 12000 nM.
Taken in the same sequence, the figures for `CCCCCN(Cc1ccccc1)C(=O)c1cc(C(F)(F)F)n[nH]1` [Compound 19] were 76% and 920 nM.
On to `O=C(c1cc(C(F)(F)F)n[nH]1)N(Cc1ccccc1F)CC1CCOCC1` [Compound 45], for which the “Max. Resp. (%)” value was 52%. The AC50 under setting [1] came to 25100 nM.
Turning to `O=C(c1cc(C(F)(F)F)n[nH]1)N(Cc1ccccc1F)CC1CCOC1` (stereo not drawn) [Compound 150], the “Max. Resp. (%)” value came to 68%. The AC50 under setting [1] came to 16000 nM.
For `O=C(c1cc(C(F)(F)F)n[nH]1)N(Cc1ccc(O)cc1F)C1CCCC1` [Compound 132] the same measures were 100% and 213 nM.
Taken in the same sequence, the figures for `CCN(CC)CCN(Cc1c(F)cccc1Cl)C(=O)c1cc(C(F)(F)F)n[nH]1` [Compound 172] were 100% and 94 nM.
As to `CN(C)CCN(Cc1ccccc1Cl)C(=O)c1cc(C(F)(F)F)n[nH]1` [Compound 187], the “Max. Resp. (%)” value worked out at 100%. For the same molecule, the AC50 under setting [1] stood at 295 nM.
Take `CCN(CC)CCN(Cc1c(Cl)cccc1Cl)C(=O)c1cc(C(F)(F)F)n[nH]1` [Compound 169]: the “Max. Resp. (%)” value turned out to be 100%. The AC50 under setting [1] amounted to 66 nM.
For `CN1CCN(CCN(Cc2ccccc2Cl)C(=O)c2cc(C(F)(F)F)n[nH]2)CC1` [Compound 104], the “Max. Resp. (%)” value turned out to be 63%. For the same molecule, the AC50 under setting [1] amounted to 17000 nM.
For `Nc1cccc(Cl)c1CN(CCN1CCCC(F)CC1)C(=O)c1cc(C(F)(F)F)n[nH]1` (stereo not drawn) [Compound 243] the same measures were 100% and 106 nM.
As for `O=C(c1cc(Cl)n[nH]1)N(CCC1CCSCC1)Cc1ccccc1F` [Compound 80], the AC50 stood at 1300 nM and the “Max. Resp. (%)” value was determined as 46%.
Turning to `CC(CN(Cc1c(N)cccc1Cl)C(=O)c1cc(C(F)(F)F)n[nH]1)N1CCCC1` (stereo not drawn) [Compound 221], the “Max. Resp. (%)” value is 60%. In addition, the AC50 under setting [1] is 223 nM.
For `O=C(c1cc(C(F)(F)F)n[nH]1)N(CCN1CCCC1)Cc1ccccc1F` [Compound 158] the same measures were 100% and 265 nM.
For the molecule `Nc1cccc(Cl)c1CN(CCN1CCCC1)C(=O)c1cc(C(F)(F)F)n[nH]1` [Compound 222], the activity was half-maximal at 56 nM (AC50) and the “Max. Resp. (%)” value was found to be 100%.
For the molecule `O=C(c1cc(C(F)(F)F)n[nH]1)N(Cc1ccccc1Cl)CC1CCN1` (stereo not drawn) [Compound 227], the “Max. Resp. (%)” value was determined as 100%. Also, the AC50 under setting [1] worked out at 215 nM.
In the case of `O=C(c1cc(C2CC2)n[nH]1)N(Cc1ccc(O)cc1F)CC1CCC1` [Compound 246], the “Max. Resp. (%)” value was determined as 85%.
As for `O=C(c1cc(C(F)(F)F)n[nH]1)N(CCC1CCS(=O)(=O)CC1)Cc1ccc(O)cc1F` [Compound 87], the “Max. Resp. (%)” value is reported as 100%. The AC50 under setting [1] amounted to 64 nM.
As for `Nc1ccccc1CN(CCC1CCS(=O)(=O)C1)C(=O)c1cc(C(F)(F)F)n[nH]1` (stereo not drawn) [Compound 77], the activity was half-maximal at 34800 nM (AC50) and the “Max. Resp. (%)” value was 43%.
As for `O=C(c1cc(C(F)(F)F)n[nH]1)N(CCC1CCS(=O)(=O)C1)Cc1ccc(O)cc1F` (stereo not drawn) [Compound 76], the “Max. Resp. (%)” value is listed as 93%. Moreover, the AC50 under setting [1] worked out at 54 nM.
`O=C(c1cc(C(F)(F)F)n[nH]1)N(Cc1ccc(O)cc1F)CC1CCC1` [Compound 1]: the “Max. Resp. (%)” value came out at 100%.
As for `O=C(c1cc(C(F)(F)F)n[nH]1)N(CCC1CC1)Cc1ccc(O)cc1F` [Compound 140], the “Max. Resp. (%)” value was 100%. The AC50 under setting [1] turned out to be 32 nM.
For `O=C(c1cc(C(F)(F)F)n[nH]1)N(Cc1ccncc1Cl)CC1CCC1` [Compound 128] the same measures were 75% and 9300 nM.
For the molecule `O=C(c1cc(C(F)(F)F)n[nH]1)N(CCC1CCS(=O)(=O)C1)Cc1cccc(F)c1` (stereo not drawn) [Compound 67], the AC50 is 1630 nM and the “Max. Resp. (%)” value is reported as 95%.
Turning to `O=C(c1cc(C(F)(F)F)n[nH]1)N(Cc1cccc2[nH]c(=O)sc12)CC1CCC1` [Compound 7], the “Max. Resp. (%)” value amounted to 87%. For the same molecule, the AC50 under setting [1] came to 3450 nM.
Take `CC(c1ccccc1)N(CC1CCC1)C(=O)c1cc(N)n[nH]1` (stereo not drawn) [Compound 4]: the “Max. Resp. (%)” value came to 52%. Moreover, the AC50 under setting [1] was found to be 1480 nM.
For `O=C(c1cc(C(F)(F)F)n[nH]1)N(CCN1CCC(O)CC1)Cc1ccccc1Cl` [Compound 219], the “Max. Resp. (%)” value was determined as 100%. Besides, the AC50 under setting [1] was 1300 nM.
Take `CO[C@H]1CC[C@H](N(Cc2cc(F)cc(F)c2)C(=O)c2cc(C(F)(F)F)n[nH]2)CC1` [Compound 51]: the “Max. Resp. (%)” value came to 31%. Further, the AC50 under setting [1] was found to be 50400 nM.
In the case of `O=C(c1cc(C(F)(F)F)n[nH]1)N(CCC1CCS(=O)(=O)C1)Cc1c(F)cccc1F` (stereo not drawn) [Compound 66], half-maximal activity (AC50) was put at 375 nM and the “Max. Resp. (%)” value was found to be 102%.
As for `O=C(CCSC(=S)NCc1cccnc1)c1ccc(F)c(F)c1` [PMA21], the “Max. Resp. (%)” value stood at 42%. In addition, the AC50 under setting [1] was greater than 20000 nM.
Take `O=C(c1cc(C(F)(F)F)n[nH]1)N(Cc1ccc(O)cc1Cl)CC1CCC1` [Compound 124]: the “Max. Resp. (%)” value is reported as 100%. Under setting [1], the AC50 is 21 nM.
For the molecule `O=C(c1cc(C(F)(F)F)n[nH]1)N(CCN1CCCCCC1)Cc1ccc(O)cc1F` [Compound 195], the AC50 was 95 nM and the “Max. Resp. (%)” value was determined as 100%.
Regarding `Nc1cccc(Cl)c1CN(CCN1CC[C@@H](F)C1)C(=O)c1cc(C(F)(F)F)n[nH]1` [Compound 242], the activity was half-maximal at 465 nM (AC50) and the “Max. Resp. (%)” value is reported as 100%.
As to `CCOCCN(Cc1c(Cl)cccc1Cl)C(=O)c1cc(C(F)(F)F)n[nH]1` [Compound 42], the “Max. Resp. (%)” value worked out at 76%. Also, the concentration at half-maximal activity (AC50) under setting [1] is 8780 nM.
Take `O=C(CCSC(=S)NCc1cccnc1)c1ccco1` [PMA25]: the “Max. Resp. (%)” value was determined as 107%. Also, the AC50 under setting [1] was found to be 4300 nM.
Turning to `O=c1cc(Cn2cnc3ccccc32)nc2scc(-c3ccccc3)n12` [PP15], under setting [1], the AC50 came to 1030 nM.
In the case of `COc1ccc(N)cc1CN(CCN1CCCCCC1)C(=O)c1cc(C(F)(F)F)n[nH]1` [Compound 215], the “Max. Resp. (%)” value is 100%. The AC50 under setting [1] was found to be 1190 nM.
Consider `CCN1CCN(CCN(Cc2ccccc2F)C(=O)c2cc(C(F)(F)F)n[nH]2)CC1` [Compound 106], for which the “Max. Resp. (%)” value is 115%. Moreover, the concentration at half-maximal activity (AC50) under setting [1] amounted to 6300 nM.
As to `Nc1cccc(CN(CCN2CCCCCC2)C(=O)c2cc(C(F)(F)F)n[nH]2)c1Cl` [Compound 213], the activity was half-maximal at 60 nM (AC50) and the “Max. Resp. (%)” value is reported as 100%.
